# Assay results: paper PMC12778052 (Science Advances, 2026)
# What was measured:
# in vivo = experiment: in vivo; design: species or system NSG mice; conditions: mouse; for tissue uptake at 2 min / tissue uptake at 0.25 h / tissue uptake at 1 h / tissue uptake at 2 h / tissue uptake at 3 h / tissue to tissue ratio at 2 min / tissue to tissue ratio at 0.25 h / tissue to tissue ratio at 1 h / tissue to tissue ratio at 2 h / tissue to tissue ratio at 3 h: NSG, iv, 1.85 MBq, total radioactivity
# Method: Mice were injected with cancer cells subcutaneously in 100 μl of PBS (top right flank) for all tumor models. The following cell numbers were used: HT1376 (4 million), UC9 (3 million), UC14 (3 million), RT112 (1.5 million), T24(3 million), and SCaBER (4 million). Mice with tumor volumes of 100 to 200 mm^3 were used for all experiments. A minimum of four mice were used for all biodistribution studies. A minimum of seven mice were used in PD experiment to account for greater variability. To validate imaging studies, ex vivo biodistribution studies were conducted in mice with tumors of 100 to 200 mm^3 in size. […] In all other studies, a 60-min time point was chosen. Selected tissues (blood, skin, muscle, bone, salivary glands, tumor, lungs, heart, liver, pancreas, spleen, kidneys, bladder, and testicles) were collected, weighed, and counted, and their %IA/g values were calculated as described previously ([33]). For EV PD studies, fewer organs were harvested to accommodate a higher number of mice.
# [1] = 1.25 mg/kg dose level; cited from earlier work
# Source text: Focusing on EV, an FDA-approved ADC targeting Nectin-4 ([11]), we aimed to test whether PET-measured target engagement (TE) could better define the relationships among dose, exposure, and therapeutic response. […] Adjustments in the dosage were more ...
compound,measurement,setting,value
"CSCC[C@@H]1NC(=O)[C@@H]2CSCCC(=O)N3CN(CN(C3)C(=O)CCSC[C@H](NC(=O)CCOCCOCCOCCOCCOCCOCCOCCOCCOCCOCCOCCOCCNC(=O)CN3CCN(CC(=O)O)CCN(CC(=O)O)CC3)C(=O)N3CCC[C@H]3C(=O)N[C@@H](Cc3cccc4ccccc34)C(=O)N[C@@H](CC(=O)O)C(=O)N2)C(=O)CCSC[C@@H](C(N)=O)NC(=O)[C@H](Cc2c[nH]c3ccccc23)NC(=O)[C@@H]2C[C@@H](O)CN2C(=O)[C@@H]2CCCN2C(=O)[C@H]([C@@H](C)O)NC(=O)[C@H](CO)NC(=O)[C@H](Cc2c[nH]c3ccccc23)NC(=O)[C@@H](CC(=O)O)NC(=O)[C@H](CCCCNC(=N)N)NC1=O [[^68Ga]AJ647, metal not drawn]",tissue uptake at 2 min,in vivo; Blood,35.8 ± 3.64 %ID/g
same,tissue uptake at 0.25 h,in vivo; Blood,2.94 ± 0.68 %ID/g
same,tissue uptake at 1 h,in vivo; Blood,0.84 ± 0.22 %ID/g
same,tissue uptake at 2 h,in vivo; Blood,0.28 ± 0.06 %ID/g
same,tissue uptake at 3 h,in vivo; Blood,0.32 ± 0.09 %ID/g
same,tissue uptake at 2 min,in vivo; Femur,1.88 ± 0.29 %ID/g
same,tissue uptake at 0.25 h,in vivo; Femur,1.3 ± 0.05 %ID/g
same,tissue uptake at 1 h,in vivo; Femur,0.57 ± 0.18 %ID/g
same,tissue uptake at 2 h,in vivo; Femur,0.27 ± 0.09 %ID/g
same,tissue uptake at 3 h,in vivo; Femur,0.34 ± 0.09 %ID/g
same,tissue uptake at 2 min,in vivo; Heart,11.3 ± 0.51 %ID/g
same,tissue uptake at 0.25 h,in vivo; Heart,1.15 ± 0.34 %ID/g
same,tissue uptake at 1 h,in vivo; Heart,0.43 ± 0.07 %ID/g
same,tissue uptake at 2 h,in vivo; Heart,0.19 ± 0.01 %ID/g
same,tissue uptake at 3 h,in vivo; Heart,0.22 ± 0.01 %ID/g
same,tissue uptake at 2 min,in vivo; Liver,6.45 ± 1.39 %ID/g
same,tissue uptake at 0.25 h,in vivo; Liver,1.19 ± 0.3 %ID/g
same,tissue uptake at 1 h,in vivo; Liver,0.45 ± 0.09 %ID/g
same,tissue uptake at 2 h,in vivo; Liver,0.21 ± 0.07 %ID/g
same,tissue uptake at 3 h,in vivo; Liver,0.23 ± 0.02 %ID/g
same,tissue uptake at 2 min,in vivo; Lung,24.2 ± 7.05 %ID/g
same,tissue uptake at 0.25 h,in vivo; Lung,3.66 ± 0.5 %ID/g
same,tissue uptake at 1 h,in vivo; Lung,1.66 ± 0.25 %ID/g
same,tissue uptake at 2 h,in vivo; Lung,0.81 ± 0.28 %ID/g
same,tissue uptake at 3 h,in vivo; Lung,0.47 ± 0.2 %ID/g
same,tissue uptake at 2 min,in vivo; Muscle,0.96 ± 0.19 %ID/g
same,tissue uptake at 0.25 h,in vivo; Muscle,0.93 ± 0.36 %ID/g
same,tissue uptake at 1 h,in vivo; Muscle,0.38 ± 0.06 %ID/g
same,tissue uptake at 2 h,in vivo; Muscle,0.2 ± 0.11 %ID/g
same,tissue uptake at 3 h,in vivo; Muscle,0.18 ± 0.05 %ID/g
same,tissue uptake at 2 min,in vivo; Salivary glands,6.3 ± 1.24 %ID/g
same,tissue uptake at 0.25 h,in vivo; Salivary glands,4.74 ± 0.94 %ID/g
same,tissue uptake at 1 h,in vivo; Salivary glands,1.48 ± 0.18 %ID/g
same,tissue uptake at 2 h,in vivo; Salivary glands,0.67 ± 0.09 %ID/g
same,tissue uptake at 3 h,in vivo; Salivary glands,0.69 ± 0.07 %ID/g
same,tissue uptake at 2 min,in vivo; Skin,1.13 ± 0.16 %ID/g
same,tissue uptake at 0.25 h,in vivo; Skin,2.74 ± 0.5 %ID/g
same,tissue uptake at 1 h,in vivo; Skin,1.45 ± 0.33 %ID/g
same,tissue uptake at 2 h,in vivo; Skin,0.82 ± 0.22 %ID/g
same,tissue uptake at 3 h,in vivo; Skin,0.66 ± 0.12 %ID/g
same,tissue uptake at 2 min,in vivo; Small intestine,0.85 ± 0.23 %ID/g
same,tissue uptake at 0.25 h,in vivo; Small intestine,0.68 ± 0.23 %ID/g
same,tissue uptake at 1 h,in vivo; Small intestine,0.52 ± 0.17 %ID/g
same,tissue uptake at 2 h,in vivo; Small intestine,0.16 ± 0.02 %ID/g
same,tissue uptake at 2 min,in vivo; Stomach,0.34 ± 0.11 %ID/g
same,tissue uptake at 0.25 h,in vivo; Stomach,0.49 ± 0.36 %ID/g
same,tissue uptake at 2 h,in vivo; Stomach,0.13 ± 0.04 %ID/g
same,tissue uptake at 2 min,in vivo; Thymus,15.7 ± 5.42 %ID/g
same,tissue uptake at 0.25 h,in vivo; Thymus,2.38 ± 0.7 %ID/g
same,tissue uptake at 1 h,in vivo; Thymus,0.71 ± 0.3 %ID/g
same,tissue uptake at 2 h,in vivo; Thymus,0.67 ± 0.21 %ID/g
same,tissue uptake at 3 h,in vivo; Thymus,0.52 ± 0.23 %ID/g
same,tissue uptake at 2 min,in vivo; Tumor,0.72 ± 0.31 %ID/g
same,tissue uptake at 0.25 h,in vivo; Tumor,3.75 ± 0.86 %ID/g
same,tissue uptake at 1 h,in vivo; Tumor,3.72 ± 0.36 %ID/g
same,tissue uptake at 2 h,in vivo; Tumor,2.06 ± 0.49 %ID/g
same,tissue uptake at 3 h,in vivo; Tumor,1.39 ± 0.32 %ID/g
same,tissue to tissue ratio at 2 min,in vivo; Tumor/blood ratio,0.02 ± 0.01
same,tissue to tissue ratio at 0.25 h,in vivo; Tumor/blood ratio,1.41 ± 0.4
same,tissue to tissue ratio at 1 h,in vivo; Tumor/blood ratio,4.6 ± 0.47
same,tissue to tissue ratio at 2 h,in vivo; Tumor/blood ratio,7.27 ± 0.76
same,tissue to tissue ratio at 3 h,in vivo; Tumor/blood ratio,4.58 ± 1.33
same,tissue to tissue ratio at 2 min,in vivo; Tumor/muscle ratio,0.79 ± 0.45
same,tissue to tissue ratio at 0.25 h,in vivo; Tumor/muscle ratio,4.23 ± 0.94
same,tissue to tissue ratio at 1 h,in vivo; Tumor/muscle ratio,10.1 ± 2.19
same,tissue to tissue ratio at 2 h,in vivo; Tumor/muscle ratio,11.3 ± 3.03
same,tissue to tissue ratio at 3 h,in vivo; Tumor/muscle ratio,8.2 ± 4.02
same,tissue uptake at 2 min,"in vivo; male, Adrenals",4.81 ± 2.58 %ID/g
same,tissue uptake at 0.25 h,"in vivo; male, Adrenals",2.6 ± 1.1 %ID/g
same,tissue uptake at 1 h,"in vivo; male, Adrenals",4.45 ± 2.03 %ID/g
same,tissue uptake at 3 h,"in vivo; male, Adrenals",3.8 ± 0.47 %ID/g
same,tissue uptake at 2 min,"in vivo; male, Bladder",1.72 ± 0.24 %ID/g
same,tissue uptake at 0.25 h,"in vivo; male, Bladder",24.1 ± 15.3 %ID/g
same,tissue uptake at 1 h,"in vivo; male, Bladder",39.5 ± 21.3 %ID/g
same,tissue uptake at 2 h,"in vivo; male, Bladder",22.6 ± 6.46 %ID/g
same,tissue uptake at 3 h,"in vivo; male, Bladder",58 ± 24.8 %ID/g
same,tissue uptake at 2 min,"in vivo; male, Brain",0.54 ± 0.15 %ID/g
same,tissue uptake at 0.25 h,"in vivo; male, Brain",0.1 ± 0.02 %ID/g
same,tissue uptake at 1 h,"in vivo; male, Brain",0.06 ± 0.01 %ID/g
same,tissue uptake at 2 h,"in vivo; male, Brain",0.06 ± 0.02 %ID/g
same,tissue uptake at 3 h,"in vivo; male, Brain",0.06 ± 0.02 %ID/g
same,tissue uptake at 0.25 h,"in vivo; male, Kidney",20.4 ± 3.7 %ID/g
same,tissue uptake at 1 h,"in vivo; male, Kidney",30.8 ± 4.37 %ID/g
same,tissue uptake at 2 h,"in vivo; male, Kidney",17.3 ± 12.9 %ID/g
same,tissue uptake at 2 min,"in vivo; male, Large intestine",0.25 ± 0.16 %ID/g
same,tissue uptake at 0.25 h,"in vivo; male, Large intestine",0.41 ± 0.11 %ID/g
same,tissue uptake at 3 h,"in vivo; male, Large intestine",0.18 ± 0.05 %ID/g
same,tissue uptake at 2 min,"in vivo; male, Pancreas",2.39 ± 0.72 %ID/g
same,tissue uptake at 0.25 h,"in vivo; male, Pancreas",2.5 ± 0.38 %ID/g
same,tissue uptake at 1 h,"in vivo; male, Pancreas",0.93 ± 0.03 %ID/g
same,tissue uptake at 2 h,"in vivo; male, Pancreas",0.3 ± 0.06 %ID/g
same,tissue uptake at 3 h,"in vivo; male, Pancreas",0.42 ± 0.02 %ID/g
same,tissue uptake at 2 min,"in vivo; male, Spleen",1.04 ± 0.23 %ID/g
same,tissue uptake at 0.25 h,"in vivo; male, Spleen",4.32 ± 1.31 %ID/g
same,tissue uptake at 1 h,"in vivo; male, Spleen",1.75 ± 0.21 %ID/g
same,tissue uptake at 2 h,"in vivo; male, Spleen",0.84 ± 0.17 %ID/g
same,tissue uptake at 3 h,"in vivo; male, Spleen",0.83 ± 0.07 %ID/g
same,tissue uptake at 2 min,"in vivo; male, Testicles",0.79 ± 0.07 %ID/g
same,tissue uptake at 0.25 h,"in vivo; male, Testicles",0.86 ± 0.12 %ID/g
same,tissue uptake at 1 h,"in vivo; male, Testicles",0.74 ± 0.2 %ID/g
same,tissue uptake at 2 h,"in vivo; male, Testicles",0.52 ± 0.17 %ID/g
same,tissue uptake at 3 h,"in vivo; male, Testicles",0.93 ± 0.5 %ID/g
same,blood pool activity cleared,in vivo,more than 90%
enfortumab vedotin [EV],patients needing dosage adjustments,[1],more than 32%
